Test results from patent publication US10981926B2 (Janssen Pharmaceutica NV, priority 2016, dated 2021).

Key:
Assay type in all cases: cell-based
[1] = target: T1, wild-type Androgen Receptor (AR-wt) (Homo sapiens (Human), UniProt P10275); assay: LNCaP-AR-wt AG reporter assay (agonist mode); conditions: for LNCaP-AR-wt AG pEC50 / EC50: agonist mode, pEC50 = −Log10(EC50 in Molar); for Emax: maximum % stimulation (agonist response) over the tested concentration range, read-out: LNCaP-AR-wt AG MAX % Stim; for EC50: read-out: LNCaP-AR-wt AG pEC50 (converted)
[2] = target: T2, F876L mutant Androgen Receptor (AR-F876L) (Homo sapiens (Human), UniProt P10275, F877L); assay: LNCaP-AR-F876L AG reporter assay (agonist mode); conditions: for LNCaP-AR-F876L AG pEC50 / EC50: agonist mode, pEC50 = −Log10(EC50 in Molar); for Emax: maximum % stimulation (agonist response) over the tested concentration range, read-out: LNCaP-AR-F876L AG MAX % Stim; for EC50: read-out: LNCaP-AR-F876L AG pEC50 (converted)
[3] = target: T2, F876L mutant Androgen Receptor (AR-F876L); assay: LNCaP-AR-F876L ANT reporter assay (antagonist mode); conditions: for LNCaP-AR-F876L ANT pIC50 / IC50: antagonist mode, pIC50 = −Log10(IC50 in Molar); for Emax: maximum % inhibition of R1881 control response over the tested concentration range, read-out: LNCaP-AR-F876L ANT MAX % Inh; for IC50: read-out: LNCaP-AR-F876L ANT pIC50 (converted)
[4] = target: T1, wild-type Androgen Receptor (AR-wt); assay: LNCaP-AR-wt ANT reporter assay (antagonist mode); conditions: for LNCaP-AR-wt ANT pIC50 / IC50: antagonist mode, pIC50 = −Log10(IC50 in Molar); for Emax: maximum % inhibition of R1881 control response over the tested concentration range, read-out: LNCaP-AR-wt ANT MAX % Inh; for IC50: read-out: LNCaP-AR-wt ANT pIC50 (converted)

T1 sequence (P10275 whole entry): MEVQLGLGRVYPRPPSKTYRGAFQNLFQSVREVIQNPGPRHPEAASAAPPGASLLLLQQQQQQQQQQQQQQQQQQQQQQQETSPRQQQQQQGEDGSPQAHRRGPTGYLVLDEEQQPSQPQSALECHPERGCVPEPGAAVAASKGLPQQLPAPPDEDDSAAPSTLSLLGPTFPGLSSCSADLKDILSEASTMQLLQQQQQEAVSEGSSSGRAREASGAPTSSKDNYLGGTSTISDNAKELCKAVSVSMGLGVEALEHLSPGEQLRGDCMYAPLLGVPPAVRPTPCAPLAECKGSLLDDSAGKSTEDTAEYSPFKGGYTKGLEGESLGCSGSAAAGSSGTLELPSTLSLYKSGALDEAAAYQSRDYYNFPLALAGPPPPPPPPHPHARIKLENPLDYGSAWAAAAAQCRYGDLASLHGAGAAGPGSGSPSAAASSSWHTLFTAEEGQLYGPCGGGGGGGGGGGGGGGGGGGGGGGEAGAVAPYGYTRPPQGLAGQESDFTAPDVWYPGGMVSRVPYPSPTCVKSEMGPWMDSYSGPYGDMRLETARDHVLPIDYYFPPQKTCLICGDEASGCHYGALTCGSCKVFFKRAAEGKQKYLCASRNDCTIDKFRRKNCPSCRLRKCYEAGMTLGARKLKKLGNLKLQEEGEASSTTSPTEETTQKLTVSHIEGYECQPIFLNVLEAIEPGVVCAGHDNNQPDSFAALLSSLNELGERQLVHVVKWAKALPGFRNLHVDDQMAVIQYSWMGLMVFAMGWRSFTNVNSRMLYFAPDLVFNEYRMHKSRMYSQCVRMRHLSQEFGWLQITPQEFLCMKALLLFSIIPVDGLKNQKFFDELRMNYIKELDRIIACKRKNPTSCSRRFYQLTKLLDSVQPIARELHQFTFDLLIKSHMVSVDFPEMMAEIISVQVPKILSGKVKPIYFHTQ
T2 sequence (P10275 whole entry F877L): as the sequence (P10275 whole entry) above, with F877L counted along it

Compound	LNCaP-AR-wt AG pEC50 [1]	Emax [1] [%]	LNCaP-AR-F876L AG pEC50 [2]	Emax [2] [%]	LNCaP-AR-F876L ANT pIC50 [3]	Emax [3] [%]	LNCaP-AR-wt ANT pIC50 [4]	Emax [4] [%]	EC50 [1] [nM]	EC50 [2] [nM]	IC50 [3] [nM]	IC50 [4] [nM]
N#Cc1ncc(N2C(=O)C3(CCC3)N(c3ccc(C4CC5CCC(C4)N5)cc3)C2=S)cc1C(F)(F)F (stereo not drawn) [Cpd 123, 5-(5-(4-(8-azabicyclo[3.2.1]octan-3-yl)phenyl)-8-oxo-6-thioxo-5,7-diazaspiro[3.4]octan-7-yl)-3-(trifluoromethyl)picolinonitrile]	<4.82	0.3	<4.82	0.2	6.03	102	5.64	103	–	–	–	–
CC(=O)N1CCC(Cn2ncc3cc(N4C(=S)N(c5cnc(C#N)c(C(F)(F)F)c5)C(=O)C45CCC5)ccc32)CC1 [Cpd 124, 5-[8-[1-[(1-acetyl-4-piperidyl)methyl]indazol-5-yl]-5-oxo-7-thioxo-6,8-diazaspiro[3.4]octan-6-yl]-3-(trifluoromethyl)pyridine-2-carbonitrile]	–	0.3	–	0.5	–	103	–	103	> 15100	> 15100	39.8	115
CN1CCc2cc(N3C(=S)N(c4cnc(C#N)c(C(F)(F)F)c4)C(=O)C34CCC4)ccc2C1 [Cpd 125, 5-[8-(2-methyl-3,4-dihydro-1H-isoquinolin-6-yl)-5-oxo-7-thioxo-6,8-diazaspiro[3.4]octan-6-yl]-3-(trifluoromethyl)pyridine-2-carbonitrile]	–	0.6	–	0	–	98.1	–	99.5	> 15100	> 15100	1580	2690
N#Cc1ncc(N2C(=O)C3(CCC3)N(c3ccc4nn(CC5CCNCC5)cc4c3)C2=S)cc1C(F)(F)F [Cpd 126, 5-[5-oxo-8-[2-(4-piperidylmethyl)indazol-5-yl]-7-thioxo-6,8-diazaspiro[3.4]octan-6-yl]-3-(trifluoromethyl)pyridine-2-carbonitrile]	–	0.2	–	0.8	–	100	–	101	> 15100	> 15100	204	275
CN1C2C=C(c3ccc(N4C(=S)N(c5cnc(C#N)c(C(F)(F)F)c5)C(=O)C45CCC5)cc3)CC1CC2 (stereo not drawn) [Cpd 127, 5-[8-[4-(8-methyl-8-azabicyclo[3.2.1]oct-3-en-3-yl)phenyl]-5-oxo-7-thioxo-6,8-diazaspiro[3.4]octan-6-yl]-3-(trifluoromethyl)pyridine-2-carbonitrile]	<4.82	0.5	<4.82	0.4	6.37	102	6.23	102	–	–	–	–
N#Cc1ncc(N2C(=O)C3(CCC3)N(c3ccc4c(cnn4CC4CCNCC4)c3)C2=S)cc1C(F)(F)F [Cpd 128, 5-(8-Oxo-5-(1-(piperidin-4-ylmethyl)-1H-indazol-5-yl)-6-thioxo-5,7-diazaspiro[3.4]octan-7-yl)-3-(trifluoromethyl)picolinonitrile]	–	0.2	–	0.3	–	101	–	101	> 15100	> 15100	468	1070
CN1CCC(Cn2ncc3cc(N4C(=S)N(c5cnc(C#N)c(C(F)(F)F)c5)C(=O)C45CCC5)ccc32)CC1 [Cpd 132, 5-(5-(1-((1-methylpiperidin-4-yl)methyl)-1H-indazol-5-yl)-8-oxo-6-thioxo-5,7-diazaspiro[3.4]octan-7-yl)-3-(trifluoromethyl)picolinonitrile]	–	0.5	–	0.9	–	98.7	–	101	> 15100	> 15100	148	372
N#Cc1ncc(N2C(=O)C3(CCC3)N(C3CCC(NC(=O)c4ccccc4)CC3)C2=S)cc1C(F)(F)F (stereo not drawn) [Cpd 134, N-[4-[6-[6-cyano-5-(trifluoromethyl)-3-pyridyl]-5-oxo-7-thioxo-6,8-diazaspiro[3.4]octan-8-yl]cyclohexyl]benzamide]	–	–	–	–	–	–	–	–	> 15100	> 15100	339	759
N#Cc1ncc(N2C(=O)C3(CCC3)N(c3ccc(OC4C5CCC4CNC5)nc3)C2=S)cc1C(F)(F)F (stereo not drawn) [Cpd 139, 5-[8-[6-(3-azabicyclo[3.2.1]octan-8-yloxy)-3-pyridyl]-5-oxo-7-thioxo-6,8-diazaspiro[3.4]octan-6-yl]-3-(trifluoromethyl)pyridine-2-carbonitrile]	–	1.2	–	0.1	–	99.8	–	102	> 15100	> 15100	513	589
CC1(Oc2ccc(N3C(=S)N(c4cnc(C#N)c(C(F)(F)F)c4)C(=O)C34CCC4)cc2)CCNCC1 [Cpd 140, 5-[8-[4-[(4-methyl-4-piperidyl)oxy]phenyl]-5-oxo-7-thioxo-6,8-diazaspiro[3.4]octan-6-yl]-3-(trifluoromethyl)pyridine-2-carbonitrile]	–	0.3	–	0	–	99.5	–	99.9	> 15100	> 15100	339	1000
CN1CC(CCOc2ccc(N3C(=S)N(c4cnc(C#N)c(C(F)(F)F)c4)C(=O)C34CCC4)cc2)C1 [Cpd 142, 5-[8-[4-[2-(1-methylazetidin-3-yl)ethoxy]phenyl]-5-oxo-7-thioxo-6,8-diazaspiro[3.4]octan-6-yl]-3-(trifluoromethyl)pyridine-2-carbonitrile]	–	-0.2	–	0.8	–	99	–	101	> 15100	> 15100	117	112
CN1CCC(C)(Oc2ccc(N3C(=S)N(c4cnc(C#N)c(C(F)(F)F)c4)C(=O)C34CCC4)cc2)CC1 [Cpd 143, 5-[8-[4-[(1,4-dimethyl-4-piperidyl)oxy]phenyl]-5-oxo-7-thioxo-6,8-diazaspiro[3.4]octan-6-yl]-3-(trifluoromethyl)pyridine-2-carbonitrile]	–	-0.2	–	0.4	–	101	–	103	> 15100	> 15100	355	1350
N#Cc1ncc(N2C(=O)C3(CCC3)N(c3ccc(OCC4(N)COC4)cc3)C2=S)cc1C(F)(F)F [Cpd 145, 5-[8-[4-[(3-aminooxetan-3-yl)methoxy]phenyl]-5-oxo-7-thioxo-6,8-diazaspiro[3.4]octan-6-yl]-3-(trifluoromethyl)pyridine-2-carbonitrile]	–	0.5	–	1.8	–	98.8	–	101	> 15100	> 15100	302	178
CN1CC2CCC(C1)C2Oc1ccc(N2C(=S)N(c3cnc(C#N)c(C(F)(F)F)c3)C(=O)C23CCC3)cc1 (stereo not drawn) [Cpd 146, 5-[8-[4-[(3-methyl-3-azabicyclo[3.2.1]octan-8-yl)oxy]phenyl]-5-oxo-7-thioxo-6,8-diazaspiro[3.4]octan-6-yl]-3-(trifluoromethyl)pyridine-2-carbonitrile]	–	0.1	–	-0.1	–	101	–	103	> 15100	> 15100	61.7	100
